# Measurements published in publication PMC8222254, “Self-assembly of an anion receptor with metal-dependent kinase inhibition and potent in vitro anti-cancer properties” (Nature Communications, 2021).
# Where “and” joins values, the source holds several entries; their conditions need not be identical. Equal values may be shown once. Read-outs that look alike come from different tables or passages of the source.
# Key:
# Assay in all cases: Chemosensitivity, 96 h continuous exposure, MTT assay
# Type in all cases: cell-based, human
# [1] = system: MiaPaCa2; settings: for Selectivity index (ARPE19): IC50 ARPE-19 / IC50 MiaPaCa2; for Selectivity index (MCF10A): IC50 MCF10A / IC50 MiaPaCa2; for IC50 / Selectivity indices relative to ARPE-19, Ratio + anion:no anion / Selectivity indices relative to MCF10A, Ratio + anion:no anion: MiaPaCa2; for Relative potency (+ anion to no anion), Ratio + anion:no anion: ratio of IC50, MiaPaCa2; for Selectivity indices relative to ARPE-19, Ratio + anion:no anion: ratio of SI (ARPE-19); for Selectivity indices relative to MCF10A, Ratio + anion:no anion: ratio of SI (MCF 10A)
# Summary of the method: (§1)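 IC50 is the concentration giving 50% growth reduction, derived from dose-response curves of MTT absorbance at 540 nm. Before dosing, lines were plated at 2 × 10^3 cells/well, GBM1 stem-like cells at 3 × 10^3/well, overnight at 37 °C; compound exposure lasted 96 h without interruption, vehicle 0.2% DMSO.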
# [2] = system: A549; settings: for IC50 / Selectivity indices relative to ARPE-19, Ratio + anion:no anion / Selectivity indices relative to MCF10A, Ratio + anion:no anion: A549; for Selectivity index (ARPE19): IC50 ARPE-19 / IC50 A549; for Selectivity index (MCF10A): IC50 MCF10A / IC50 A549; for Relative potency (+ anion to no anion), Ratio + anion:no anion: ratio of IC50, A549; for Selectivity indices relative to ARPE-19, Ratio + anion:no anion: ratio of SI (ARPE-19); for Selectivity indices relative to MCF10A, Ratio + anion:no anion: ratio of SI (MCF 10A)
# Summary of the method: as §1
# [3] = system: MCF10A non-cancer cells; settings: for Relative potency (+ anion to no anion), Ratio + anion:no anion: ratio of IC50, MCF10A
# Summary of the method: as §1
# [4] = system: HCT116 p53+/+; settings: for IC50 / Selectivity indices relative to ARPE-19, Ratio + anion:no anion / Selectivity indices relative to MCF10A, Ratio + anion:no anion: HCT116 p53+/+; for Selectivity index (ARPE19): IC50 ARPE-19 / IC50 HCT116 p53+/+; for Selectivity index (MCF10A): IC50 MCF10A / IC50 HCT116 p53+/+; for Relative potency (+ anion to no anion), Ratio + anion:no anion: ratio of IC50, HCT116 p53+/+; for Selectivity indices relative to ARPE-19, Ratio + anion:no anion: ratio of SI (ARPE-19); for Selectivity indices relative to MCF10A, Ratio + anion:no anion: ratio of SI (MCF 10A)
# Summary of the method: as §1
# [5] = system: DLD-1; settings: for IC50 / Selectivity indices relative to ARPE-19, Ratio + anion:no anion / Selectivity indices relative to MCF10A, Ratio + anion:no anion: DLD-1; for Selectivity index (ARPE19): IC50 ARPE-19 / IC50 DLD-1; for Selectivity index (MCF10A): IC50 MCF10A / IC50 DLD-1; for Relative potency (+ anion to no anion), Ratio + anion:no anion: ratio of IC50, DLD-1; for Selectivity indices relative to ARPE-19, Ratio + anion:no anion: ratio of SI (ARPE-19); for Selectivity indices relative to MCF10A, Ratio + anion:no anion: ratio of SI (MCF 10A)
# Summary of the method: as §1
# [6] = system: BxPC3; settings: for IC50 / Selectivity indices relative to ARPE-19, Ratio + anion:no anion / Selectivity indices relative to MCF10A, Ratio + anion:no anion: BXPC3; for Selectivity index (ARPE19): IC50 ARPE-19 / IC50 BXPC3; for Selectivity index (MCF10A): IC50 MCF10A / IC50 BXPC3; for Relative potency (+ anion to no anion), Ratio + anion:no anion: ratio of IC50, BXPC3; for Selectivity indices relative to ARPE-19, Ratio + anion:no anion: ratio of SI (ARPE-19); for Selectivity indices relative to MCF10A, Ratio + anion:no anion: ratio of SI (MCF 10A)
# Summary of the method: as §1
# [7] = system: HCT116 p53-/-; settings: for IC50 / Selectivity indices relative to ARPE-19, Ratio + anion:no anion / Selectivity indices relative to MCF10A, Ratio + anion:no anion: HCT116 p53-/-; for Selectivity index (ARPE19): IC50 ARPE-19 / IC50 HCT116 p53-/-; for Selectivity index (MCF10A): IC50 MCF10A / IC50 HCT116 p53-/-; for Relative potency (+ anion to no anion), Ratio + anion:no anion: ratio of IC50, HCT116 p53-/-; for Selectivity indices relative to ARPE-19, Ratio + anion:no anion: ratio of SI (ARPE-19); for Selectivity indices relative to MCF10A, Ratio + anion:no anion: ratio of SI (MCF 10A)
# Summary of the method: as §1
# [8] = mean of replicates, read-out: Mean IC50
# [9] = single replicate, read-out: IC50 values for each replicate
# [10] = MCF10A non-cancer, read-out: Mean IC50 values
# [11] = MCF10A, mean of replicates, read-out: Mean IC50
# [12] = MCF10A, single replicate, read-out: IC50 values for each replicate
smiles,measurement,setting,value
O=P(O)(O)Oc1ccccc1.[Zn+2].[Zn+2].[Zn+2].c1ccc(-c2csc(NCCN(CCNc3nc(-c4ccccn4)cs3)CCNc3nc(-c4ccccn4)cs3)n2)nc1.c1ccc(-c2csc(NCCN(CCNc3nc(-c4ccccn4)cs3)CCNc3nc(-c4ccccn4)cs3)n2)nc1 [[L2Zn3(O3POPh)]4+],Selectivity index (ARPE19),[1],4.94
same,Selectivity index (MCF10A),[1],1.12
same,IC50,[1]; [8],46600 nM
same,IC50,[1]; read-out: Mean IC50 values,46600 nM
same,IC50,[1]; [9],45400 nM and 47800 nM and 46800 nM
same,"Relative potency (+ anion to no anion), Ratio + anion:no anion",[1],0.79
same,"Selectivity indices relative to ARPE-19, Ratio + anion:no anion",[1],1.858
same,"Selectivity indices relative to MCF10A, Ratio + anion:no anion",[1],0.410
same,IC50,[2]; [8],739 nM
same,IC50,[2]; read-out: Mean IC50 values,739 nM
same,IC50,[2]; [9],651 nM and 791 nM and 774 nM
same,Selectivity index (ARPE19),[2],311.57
same,Selectivity index (MCF10A),[2],70.84
same,"Relative potency (+ anion to no anion), Ratio + anion:no anion",[2],1.83
same,"Selectivity indices relative to ARPE-19, Ratio + anion:no anion",[2],0.798
same,"Selectivity indices relative to MCF10A, Ratio + anion:no anion",[2],0.177
same,IC50,[3]; [10],52400 nM
same,IC50,[3]; [11],52400 nM
same,IC50,[3]; [12],37900 nM and 56100 nM and 63100 nM
same,"Relative potency (+ anion to no anion), Ratio + anion:no anion",[3],0.32
same,IC50,[4]; [8],64 nM
same,IC50,[4]; read-out: Mean IC50 values,64 nM
same,IC50,[4]; [9],58 nM and 64 nM and 70 nM
same,Selectivity index (ARPE19),[4],3597.66
same,Selectivity index (MCF10A),[4],818.02
same,"Relative potency (+ anion to no anion), Ratio + anion:no anion",[4],0.14
same,"Selectivity indices relative to ARPE-19, Ratio + anion:no anion",[4],10.661
same,"Selectivity indices relative to MCF10A, Ratio + anion:no anion",[4],2.358
same,IC50,[5]; [8],230 nM
same,IC50,[5]; read-out: Mean IC50 values,230 nM
same,Selectivity index (ARPE19),[5],1001.09
same,Selectivity index (MCF10A),[5],227.62
same,"Relative potency (+ anion to no anion), Ratio + anion:no anion",[5],1.35
same,"Selectivity indices relative to ARPE-19, Ratio + anion:no anion",[5],1.082
same,"Selectivity indices relative to MCF10A, Ratio + anion:no anion",[5],0.239
same,IC50,[6]; [8],1140 nM
same,IC50,[6]; read-out: Mean IC50 values,1140 nM
same,Selectivity index (ARPE19),[6],202.86
same,Selectivity index (MCF10A),[6],46.13
same,"Relative potency (+ anion to no anion), Ratio + anion:no anion",[6],3.55
same,"Selectivity indices relative to ARPE-19, Ratio + anion:no anion",[6],0.413
same,"Selectivity indices relative to MCF10A, Ratio + anion:no anion",[6],0.091
same,IC50,[7]; [8],85 nM
same,IC50,[7]; read-out: Mean IC50 values,85 nM
same,IC50,[7]; [9],155 nM and 65 nM and 36 nM
same,Selectivity index (ARPE19),[7],2708.82
same,Selectivity index (MCF10A),[7],615.92
same,"Relative potency (+ anion to no anion), Ratio + anion:no anion",[7],1.18
same,"Selectivity indices relative to ARPE-19, Ratio + anion:no anion",[7],1.240
same,"Selectivity indices relative to MCF10A, Ratio + anion:no anion",[7],0.274
CC(=O)[O-].CC(=O)[O-].CC(=O)[O-].O=P([O-])([O-])[O-].[Zn+2].[Zn+2].[Zn+2].c1ccc(-c2csc(NCCN(CCNc3nc(-c4ccccn4)cs3)CCNc3nc(-c4ccccn4)cs3)n2)nc1.c1ccc(-c2csc(NCCN(CCNc3nc(-c4ccccn4)cs3)CCNc3nc(-c4ccccn4)cs3)n2)nc1 [[L2Zn3(PO4)]3+],Selectivity index (ARPE19),[1],2.94
same,Selectivity index (MCF10A),[1],0.32
same,IC50,[1]; [8],44500 nM
same,IC50,[1]; read-out: Mean IC50 values,44500 nM
same,IC50,[1]; [9],52400 nM and 49800 nM and 47600 nM and 22000 nM and 50800 nM
same,"Relative potency (+ anion to no anion), Ratio + anion:no anion",[1],0.75
same,"Selectivity indices relative to ARPE-19, Ratio + anion:no anion",[1],1.106
same,"Selectivity indices relative to MCF10A, Ratio + anion:no anion",[1],0.118
same,IC50,[2]; [8],501 nM
same,IC50,[2]; read-out: Mean IC50 values,501 nM
same,IC50,[2]; [9],234 nM and 734 nM and 617 nM and 417 nM
same,Selectivity index (ARPE19),[2],261.42
same,Selectivity index (MCF10A),[2],28.79
same,"Relative potency (+ anion to no anion), Ratio + anion:no anion",[2],1.24
same,"Selectivity indices relative to ARPE-19, Ratio + anion:no anion",[2],0.670
same,"Selectivity indices relative to MCF10A, Ratio + anion:no anion",[2],0.072
same,IC50,[3]; [10],14400 nM
same,IC50,[3]; [11],14400 nM
same,IC50,[3]; [12],11900 nM and 15000 nM and 16300 nM
same,"Relative potency (+ anion to no anion), Ratio + anion:no anion",[3],0.09
same,IC50,[4]; [8],218 nM
same,IC50,[4]; read-out: Mean IC50 values,218 nM
same,IC50,[4]; [9],218 nM and 227 nM and 209 nM
same,Selectivity index (ARPE19),[4],600.78
same,Selectivity index (MCF10A),[4],66.16
same,"Relative potency (+ anion to no anion), Ratio + anion:no anion",[4],0.47
same,"Selectivity indices relative to ARPE-19, Ratio + anion:no anion",[4],1.780
same,"Selectivity indices relative to MCF10A, Ratio + anion:no anion",[4],0.191
same,IC50,[5]; [8],190 nM
same,IC50,[5]; read-out: Mean IC50 values,190 nM
same,IC50,[5]; [9],203 nM and 90 nM and 180 nM and 219 nM and 259 nM
same,Selectivity index (ARPE19),[5],689.32
same,Selectivity index (MCF10A),[5],75.91
same,"Relative potency (+ anion to no anion), Ratio + anion:no anion",[5],1.12
same,"Selectivity indices relative to ARPE-19, Ratio + anion:no anion",[5],0.745
same,"Selectivity indices relative to MCF10A, Ratio + anion:no anion",[5],0.080
same,IC50,[6]; [8],728 nM
same,IC50,[6]; read-out: Mean IC50 values,728 nM
same,IC50,[6]; [9],812 nM and 698 nM and 618 nM and 766 nM
same,Selectivity index (ARPE19),[6],179.90
same,Selectivity index (MCF10A),[6],19.81
same,"Relative potency (+ anion to no anion), Ratio + anion:no anion",[6],2.28
same,"Selectivity indices relative to ARPE-19, Ratio + anion:no anion",[6],0.366
same,"Selectivity indices relative to MCF10A, Ratio + anion:no anion",[6],0.039
same,IC50,[7]; read-out: Mean IC50 values,78 nM
same,IC50,[7]; [9],61 nM and 91 nM and 64 nM
same,Selectivity index (ARPE19),[7],1679.10
same,Selectivity index (MCF10A),[7],184.91
same,"Relative potency (+ anion to no anion), Ratio + anion:no anion",[7],1.08
same,"Selectivity indices relative to ARPE-19, Ratio + anion:no anion",[7],0.769
same,"Selectivity indices relative to MCF10A, Ratio + anion:no anion",[7],0.082
